# Data taken from patent US9597314B2, “Beta-lactamylalkanoic acids for treating premenstrual disorders” (AZEVAN PHARMACEUTICALS, INC., priority 2005, dated 2017).
# Molecular target: V1a (Homo sapiens, UniProt P37288)
# Test: Human vasopression V1a receptor binding assay
# Design: host or cells: CHO cells (hV1a cell line), whole adherent cells
# Conditions: hV1a cell line (CHO); for IC50: 1 nM 3H-AVP, Table 17, read-out: V1a Binding Affinity (IC50 (nM)); for Ki: Table 18
# Description: Human vasopression V1a receptor binding assay. A cell line expressing the human V1a receptor in CHO cells (henceforth referred to as the hV1a cell line) was obtained from Dr. Michael Brownstein, NIMH, Bethesda, Md., USA. The hV1a cDNA sequence is described by Thibonnier et al., Journal of Biological Chemistry, 269, 3304-3310 (1994), and the expression method was the same as described by Morel et al. (1992). The hV1a cell line was grown in alpha-MEM with 10% fetal bovine serum and 250 ug/ml G418 (Gibco, Grand Island, N.Y., USA). For competitive binding assay, hV1a cells were plated into 6-well culture plate at 1:10 dilution from a confluency flask, and maintained in culture for at least two days. Culture medium was then removed, cells were washed with 2 ml binding buffer (25 mM Hepes, 0.25% BSA, 1×DMEM, PH=7.0). To each well, 990 μl binding buffer containing 1 nM 3H-AVP was added, and followed by 10 μl series diluted Example compounds dissolved in DMSO. […] 100 nM cold AVP (Sigma) was used to assess non-specific binding. Cells were incubated for 45 minutes at 37° C., assay mixture was removed and each well was washed three times with PBS (pH=7.4). 1 ml 2% SDS was added per well and plates were let sit for 30 minutes. The whole content in a well was transferred to a scintillation vial. Each well was rinsed with 0.5 ml PBS which was then added to the corresponding vial. Scintillation fluid (Ecoscint, National Diagnostics, Atlanta, Ga.) was then added at 3 ml per vial. Samples were counted in a liquid scintillation counter (Beckman LS3801). IC50 values were calculated by Prism Curve fitting software.
# All of the alkanedioic esters and amides exemplified in the foregoing examples dissolved in DMSO were tested in this assay. Binding curves were generated according to methods described by Thibonnier et al. (1994). [^3H]-AVP was added to the hV1a cell cultures followed by 10 fold dilutions of each test compound.
# Sequence of V1a (P37288 whole entry): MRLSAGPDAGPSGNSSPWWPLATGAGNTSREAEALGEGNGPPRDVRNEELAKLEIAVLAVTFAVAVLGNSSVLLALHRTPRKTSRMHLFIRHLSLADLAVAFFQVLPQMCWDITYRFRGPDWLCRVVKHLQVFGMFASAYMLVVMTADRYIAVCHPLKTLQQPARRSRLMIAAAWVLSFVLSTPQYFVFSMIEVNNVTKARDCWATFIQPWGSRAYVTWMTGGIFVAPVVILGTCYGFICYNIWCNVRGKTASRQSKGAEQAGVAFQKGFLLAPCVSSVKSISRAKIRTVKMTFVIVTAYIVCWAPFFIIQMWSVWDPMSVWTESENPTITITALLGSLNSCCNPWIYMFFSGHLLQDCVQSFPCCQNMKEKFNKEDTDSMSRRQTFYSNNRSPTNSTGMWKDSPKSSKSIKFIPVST
SMILES,IC50,Ki
COc1ccccc1CNC(=O)[C@H](CCC(=O)N1CCN(C2CCCCC2)CC1)N1C(=O)[C@@H](N2C(=O)OC[C@@H]2c2ccccc2)[C@H]1/C=C/c1ccccc1 [Example 220],5.3 nM,3.26 nM
CCCCN1CCN(C(=O)CC[C@@H](C(=O)NCc2cccc(C(F)(F)F)c2)N2C(=O)[C@@H](N3C(=O)OC[C@@H]3c3ccccc3)[C@H]2/C=C/c2ccccc2)CC1 [Example 221AB],< 10 nM,
CCN1CCN(C(=O)CC[C@@H](C(=O)NCc2cccc(C(F)(F)F)c2)N2C(=O)[C@@H](N3C(=O)OC[C@@H]3c3ccccc3)[C@H]2/C=C/c2ccccc2)CC1 [Example 221AC],< 10 nM,
O=C(CC[C@@H](C(=O)N[C@@H]1CCCc2ccccc21)N1C(=O)[C@@H](N2C(=O)OC[C@@H]2c2ccccc2)[C@H]1/C=C/c1ccccc1)N[C@@H]1CCN(Cc2ccccc2)C1 [Example 221AD],~50 nM,
O=C(CC[C@@H](C(=O)N[C@@H]1CCCc2ccccc21)N1C(=O)[C@@H](N2C(=O)OC[C@@H]2c2ccccc2)[C@H]1/C=C/c1ccccc1)NC1CN2CCC1CC2 (some centres unmarked) [Example 221AE],~50 nM,
CCN1CCC[C@H]1CNC(=O)CC[C@@H](C(=O)N[C@@H]1CCCc2ccccc21)N1C(=O)[C@@H](N2C(=O)OC[C@@H]2c2ccccc2)[C@H]1/C=C/c1ccccc1 [Example 221AI],~50 nM,
O=C(CC[C@@H](C(=O)N[C@@H]1CCCc2ccccc21)N1C(=O)[C@@H](N2C(=O)OC[C@@H]2c2ccccc2)[C@H]1/C=C/c1ccccc1)Nc1cnc2ccccc2c1 [Example 221AL],~100 nM,
O=C(NC1(c2cccc(F)c2)CCCC1)[C@H](CCC(=O)N1CCN(C2CCCCC2)CC1)N1C(=O)[C@@H](N2C(=O)OC[C@@H]2c2ccccc2)[C@H]1/C=C/c1ccccc1 [Example 221AM],,2.7 nM
COc1ccc(C2(NC(=O)[C@H](CCC(=O)N3CCN(C4CCCCC4)CC3)N3C(=O)[C@@H](N4C(=O)OC[C@@H]4c4ccccc4)[C@H]3/C=C/c3ccccc3)CC2)cc1 [Example 221AO],~100 nM,
Cc1ccc(C2(NC(=O)[C@H](CCC(=O)N3CCN(C4CCCCC4)CC3)N3C(=O)[C@@H](N4C(=O)OC[C@@H]4c4ccccc4)[C@H]3/C=C/c3ccccc3)CC2)cc1 [Example 221AP],,3.8 nM
O=C(NC1(c2ccc(Cl)cc2)CCCC1)[C@H](CCC(=O)N1CCN(C2CCCCC2)CC1)N1C(=O)[C@@H](N2C(=O)OC[C@@H]2c2ccccc2)[C@H]1/C=C/c1ccccc1 [Example 221AQ],~50 nM,
Cc1ccc(C2(NC(=O)[C@H](CCC(=O)N3CCN(C4CCCCC4)CC3)N3C(=O)[C@@H](N4C(=O)OC[C@@H]4c4ccccc4)[C@H]3/C=C/c3ccccc3)CCCC2)cc1 [Example 221AS],~20 nM,
CC(C)(C)OC(=O)N[C@@H]1CCN(C2CCN(C(=O)CC[C@@H](C(=O)NC3(c4ccccc4)CCCC3)N3C(=O)[C@@H](N4C(=O)OC[C@@H]4c4ccccc4)[C@H]3/C=C/c3ccccc3)CC2)C1 [Example 221AX],83 nM,51 nM
O=C(Nc1cccc2c1CCC2)[C@H](CCC(=O)N1CCN(C2CCCCC2)CC1)N1C(=O)[C@@H](N2C(=O)OC[C@@H]2c2ccccc2)[C@H]1/C=C/c1ccccc1 [Example 221AY],~30 nM,
Cc1cccc(CN(C)C(=O)[C@H](CCC(=O)N2CCN(C3CCCCC3)CC2)N2C(=O)[C@@H](N3C(=O)OC[C@@H]3c3ccccc3)[C@H]2/C=C/c2ccccc2)c1 [Example 221A],2.71 nM,1.66 nM
CCN1CCN(C(=O)CC[C@@H](C(=O)N[C@@H]2CCCc3ccccc32)N2C(=O)[C@@H](N3C(=O)OC[C@@H]3c3ccccc3)[C@H]2/C=C/c2ccccc2)CC1 [Example 221BD],2.7 nM,1.66 nM
O=C(N[C@@H]1CCCc2ccccc21)[C@H](CCC(=O)N1CCN(CCCO)CC1)N1C(=O)[C@@H](N2C(=O)OC[C@@H]2c2ccccc2)[C@H]1/C=C/c1ccccc1 [Example 221BI],56 nM,35 nM
CN(Cc1cccc(Cl)c1Cl)C(=O)[C@H](CCC(=O)N1CCN(C2CCCCC2)CC1)N1C(=O)[C@@H](N2C(=O)OC[C@@H]2c2ccccc2)[C@H]1/C=C/c1ccccc1 [Example 221B],0.59 nM,0.36 nM
CN(Cc1cccc(Cl)c1)C(=O)[C@H](CCC(=O)N1CCN(C2CCCCC2)CC1)N1C(=O)[C@@H](N2C(=O)OC[C@@H]2c2ccccc2)[C@H]1/C=C/c1ccccc1 [Example 221C],3 nM,1.84 nM

SMILES,IC50,Ki
CN(Cc1cccc(Br)c1)C(=O)[C@H](CCC(=O)N1CCN(C2CCCCC2)CC1)N1C(=O)[C@@H](N2C(=O)OC[C@@H]2c2ccccc2)[C@H]1/C=C/c1ccccc1 [Example 221D],2.41 nM,1.48 nM
CN(Cc1cc(Cl)cc(Cl)c1)C(=O)[C@H](CCC(=O)N1CCN(C2CCCCC2)CC1)N1C(=O)[C@@H](N2C(=O)OC[C@@H]2c2ccccc2)[C@H]1/C=C/c1ccccc1 [Example 221E],20.2 nM,12.4 nM
O=C(NC1(c2ccccc2)CCCCC1)[C@H](CCC(=O)N1CCN(C2CCCCC2)CC1)N1C(=O)[C@@H](N2C(=O)OC[C@@H]2c2ccccc2)[C@H]1/C=C/c1ccccc1 [Example 221G],1.5 nM,0.93 nM
O=C(NC1(c2ccccc2F)CCCC1)[C@H](CCC(=O)N1CCN(C2CCCCC2)CC1)N1C(=O)[C@@H](N2C(=O)OC[C@@H]2c2ccccc2)[C@H]1/C=C/c1ccccc1 [Example 221H],4 nM,2.5 nM
O=C(NC1(c2ccc(F)cc2)CCCC1)[C@H](CCC(=O)N1CCN(C2CCCCC2)CC1)N1C(=O)[C@@H](N2C(=O)OC[C@@H]2c2ccccc2)[C@H]1/C=C/c1ccccc1 [Example 221I],12 nM,7.4 nM
O=C(NC(c1ccccc1)c1ccccc1)[C@H](CCC(=O)N1CCN(C2CCCCC2)CC1)N1C(=O)[C@@H](N2C(=O)OC[C@@H]2c2ccccc2)[C@H]1/C=C/c1ccccc1 [Example 221K],~5 nM,
O=C(CC[C@@H](C(=O)N1CCc2ccccc2C1)N1C(=O)[C@@H](N2C(=O)OC[C@@H]2c2ccccc2)[C@H]1/C=C/c1ccccc1)N1CCN(C2CCCCC2)CC1 [Example 221O],8.4 nM,5.1 nM
O=C(NC1Cc2ccccc2C1)[C@H](CCC(=O)N1CCN(C2CCCCC2)CC1)N1C(=O)[C@@H](N2C(=O)OC[C@@H]2c2ccccc2)[C@H]1/C=C/c1ccccc1 [Example 221P],1.7 nM,1.1 nM
O=C(NC(CCO)c1ccccc1)[C@H](CCC(=O)N1CCN(C2CCCCC2)CC1)N1C(=O)[C@@H](N2C(=O)OC[C@@H]2c2ccccc2)[C@H]1/C=C/c1ccccc1 (some centres unmarked) [Example 221Q],18.1 nM,11.1 nM
O=C(N[C@H]1CCc2ccccc21)[C@H](CCC(=O)N1CCN(C2CCCCC2)CC1)N1C(=O)[C@@H](N2C(=O)OC[C@@H]2c2ccccc2)[C@H]1/C=C/c1ccccc1 [Example 221R],5.13 nM,3.14 nM
O=C(N[C@@H]1CCc2ccccc21)[C@H](CCC(=O)N1CCN(C2CCCCC2)CC1)N1C(=O)[C@@H](N2C(=O)OC[C@@H]2c2ccccc2)[C@H]1/C=C/c1ccccc1 [Example 221S],5.03 nM,3.08 nM
O=C(CC[C@@H](C(=O)N[C@@H]1CCCc2ccccc21)N1C(=O)[C@@H](N2C(=O)OC[C@@H]2c2ccccc2)[C@H]1/C=C/c1ccccc1)NCCN1CCCCC1 [Example 221X],11.6 nM,7.2 nM
O=C(N[C@@H]1CCCc2ccccc21)[C@H](CCC(=O)N1CCC[C@H]1CN1CCCC1)N1C(=O)[C@@H](N2C(=O)OC[C@@H]2c2ccccc2)[C@H]1/C=C/c1ccccc1 [Example 221Y],7.6 nM,4.7 nM
Cc1ccccc1C(C)(C)NC(=O)[C@H](CCC(=O)N1CCN(C2CCCCC2)CC1)N1C(=O)[C@@H](N2C(=O)OC[C@@H]2c2ccccc2)[C@H]1/C=C/c1ccccc1 [Example 221],5.1 nM,
O=C(NCc1cccc(C(F)(F)F)c1)[C@H](CCC(=O)N1CCN(C2CCCCC2)CC1)N1C(=O)[C@@H](N2C(=O)OC[C@@H]2c2ccccc2)[C@H]1/C(Cl)=C/c1ccccc1 [Example 226],0.49 nM,0.3 nM
CCN1CCN(C(=O)CC[C@@H](C(=O)NCc2cccc(C(F)(F)F)c2)N2C(=O)[C@@H](N3C(=O)OC[C@@H]3c3ccccc3)[C@H]2/C(Cl)=C/c2ccccc2)CC1 [Example 228],13.6 nM,8.35 nM
CCCCN1CCN(C(=O)CC[C@@H](C(=O)NCc2cccc(C(F)(F)F)c2)N2C(=O)[C@@H](N3C(=O)OC[C@@H]3c3ccccc3)[C@H]2/C(Cl)=C/c2ccccc2)CC1 [Example 229],1.53 nM,0.94 nM
O=C(CC[C@@H](C(=O)NCc1cccc(C(F)(F)F)c1)N1C(=O)C(N2C(=O)OC[C@@H]2c2ccccc2)C1/C(F)=C/c1ccccc1)NC1CN2CCC1CC2 (some centres unmarked) [Example 230F],~100 nM,
